Assay results from patent US20070010671A1, “Novel quinazoline derivatives and methods of treatment related to the use thereof” (priority 2003, published 2007).
pIC50: −log10 of the molar value.

Molecular target: MCH receptor (Homo sapiens, UniProt Q99705)
Assay: High throughput functional screening FLIPR/FDSS6000: inhibition of MCH-evoked intracellular Ca2+ changes
Type: cell-based
Settings: class by percent of control at 10^-7 M or IC50
How it was run: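 Constitutively active non-endogenous MCH-R cells; Fluo4-AM 4 μM, 2.5 mM probenecid, 1 hr, 37° C; cpd 3 min, 37° C; MCH 50 nM (antagonist mode); kinetic Ca2+ read Ex488/Em530, 290 s.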

Compound	class
CN(C)c1nc(N[C@H]2CC[C@@H](CNC(=S)Nc3cc(Cl)ccc3F)CC2)nc2ccccc12 [compound 797, N-(5-choloro-2-fluorophenyl)-N′-[(cis-4-{[4-(dimethylamino)-quinazolin-2-yl]amino}cyclohexyl)methyl]thiourea]	3 (Class 3: The value of percent of control at 10^−7 M was more than 60% or the value of IC50 was more than 200 nM.)
CN(C)c1nc(N[C@H]2CC[C@@H](CNC(=O)NC3c4ccccc4-c4ccccc43)CC2)nc2ccccc12 [compound 570]	3 (Class 3: The value of percent of control at 10^−7 M was more than 60% or the value of IC50 was more than 200 nM.)
COc1ccc(OC)c(NC(=S)N[C@H]2CC[C@@H](Nc3nc(N(C)C)c4ccccc4n3)CC2)c1 [compound 212]	2 (Class 2: The value of percent of control at 10^−7 M was from 40% to 60% or the value of IC50 was from 50 nM to 200 nM.)
CN(C)c1nc(N[C@H]2CC[C@@H](NC(=S)Nc3ccc(Sc4ccc([N+](=O)[O-])cc4)cc3)CC2)nc2ccccc12 [compound 318]	3 (Class 3: The value of percent of control at 10^−7 M was more than 60% or the value of IC50 was more than 200 nM.)
CN(C)c1nc(N[C@H]2CC[C@@H](CNC(=O)Nc3ccccc3Cl)CC2)nc2ccccc12 [compound 419, N-(2-chlorophenyl)-N′-[(cis-4-{[4-(dimethylamino)quinazolin-2-yl]amino}cyclohexyl)methyl]urea]	1 (Class 1: The value of percent of control at 10^−7 M was less than 40% or the value of IC50 was less than 50 nM.)
CN(C)c1nc(N[C@H]2CC[C@@H](NC(=S)NCc3ccc(Cl)cc3)CC2)nc2ccccc12 [compound 271]	3 (Class 3: The value of percent of control at 10^−7 M was more than 60% or the value of IC50 was more than 200 nM.)
Cc1ccc(NC(=O)NC[C@H]2CC[C@@H](Nc3nc(N(C)C)c4ccccc4n3)CC2)cc1 [compound 457, N-[(cis-4-{[4-(dimethylamino)quinazolin-2-yl]amino}cyclohexyl)methyl]-N′-(4-methylphenyl)urea]	1 (Class 1: The value of percent of control at 10^−7 M was less than 40% or the value of IC50 was less than 50 nM.)
COc1ccc(C(=O)NC(=S)N[C@H]2CC[C@@H](Nc3nc(N(C)C)c4ccccc4n3)CC2)cc1 [compound 321]	3 (Class 3: The value of percent of control at 10^−7 M was more than 60% or the value of IC50 was more than 200 nM.)
CN(C)c1nc(N[C@H]2CC[C@@H](CNC(=S)Nc3cc(C(F)(F)F)cc(C(F)(F)F)c3)CC2)nc2ccccc12 [compound 579]	3 (Class 3: The value of percent of control at 10^−7 M was more than 60% or the value of IC50 was more than 200 nM.)
COc1cc(NC(=O)NC[C@H]2CC[C@@H](Nc3nc(N(C)C)c4ccccc4n3)CC2)cc(OC)c1OC [compound 520]	3 (Class 3: The value of percent of control at 10^−7 M was more than 60% or the value of IC50 was more than 200 nM.)
CN(C)c1nc(N[C@H]2CC[C@@H](NC(=S)Nc3ccc(OC(F)F)cc3)CC2)nc2ccccc12 [compound 229, N-[4-(difluoromethoxy)phenyl]-N′-(cis-4-{[4-(dimethylamino)quinazolin-2-yl]amino}cyclohexyl)thiourea]	2 (Class 2: The value of percent of control at 10^−7 M was from 40% to 60% or the value of IC50 was from 50 nM to 200 nM.)
Cc1noc(-c2ccccc2)c1NC(=O)N[C@H]1CC[C@@H](Nc2nc(N(C)C)c3ccccc3n2)CC1 [compound 354, N-(cis-4-{[4-(dimethylamino)quinazolin-2-yl]amino}cyclohexyl)-N′-(3-methyl-5-phenylisoxazol-4-yl)urea]	1 (Class 1: The value of percent of control at 10^−7 M was less than 40% or the value of IC50 was less than 50 nM.)
CSc1ccccc1NC(=O)NC[C@H]1CC[C@@H](Nc2nc(N(C)C)c3ccccc3n2)CC1 [compound 471, N-[(cis-4-{[4-(dimethylamino)quinazolin-2-yl]amino}cyclohexyl)methyl]-N′-[2-(methylthio)phenyl]urea]	2 (Class 2: The value of percent of control at 10^−7 M was from 40% to 60% or the value of IC50 was from 50 nM to 200 nM.)
CN(C)c1nc(N[C@H]2CC[C@@H](NC(=S)Nc3cc(C(F)(F)F)ccc3F)CC2)nc2ccccc12 [compound 217]	3 (Class 3: The value of percent of control at 10^−7 M was more than 60% or the value of IC50 was more than 200 nM.)
CC(=O)c1cccc(NC(=O)NC[C@H]2CC[C@@H](Nc3nc(N(C)C)c4ccccc4n3)CC2)c1 [compound 405]	3 (Class 3: The value of percent of control at 10^−7 M was more than 60% or the value of IC50 was more than 200 nM.)
CCc1cccc(C)c1NC(=S)NC[C@H]1CC[C@@H](Nc2nc(N(C)C)c3ccccc3n2)CC1 [compound 679]	2 (Class 2: The value of percent of control at 10^−7 M was from 40% to 60% or the value of IC50 was from 50 nM to 200 nM.)
Cc1cc(NC(=O)N[C@H]2CC[C@@H](Nc3nc(N(C)C)c4ccccc4n3)CC2)c(C(F)(F)F)o1 [compound 347, N-(cis-4-{[4-(dimethylamino)quinazolin-2-yl]amino}cyclohexyl)-N′-[5-methyl-2-(trifluoromethyl)-3-furyl]urea]	1 (Class 1: The value of percent of control at 10^−7 M was less than 40% or the value of IC50 was less than 50 nM.)

Same assay, conditions: class by percent of control at 10^-7 M or by IC50; read-out: class

pIC50	Compound
> 7.30	CN(C)c1nc(N[C@H]2CC[C@@H](NC(=O)NCc3ccccc3F)CC2)nc2ccccc12 [compound 100, N-(cis-4-{[4-(dimethylamino)quinazolin-2-yl]amino}cyclohexyl)-N′-(2-fluorobenzyl)urea]
> 7.30	CN(C)c1nc(N[C@H]2CC[C@@H](NC(=S)Nc3ccc(Cl)cc3Cl)CC2)nc2ccccc12 [compound 165, N-(2,4-dichlorophenyl)-N′-(cis-4-{[4-(dimethylamino)quinazolin-2-yl]amino}cyclohexyl)thiourea]
< 6.70	Cc1ccccc1NC(=S)N[C@H]1CC[C@@H](Nc2nc(N(C)C)c3ccccc3n2)CC1 [compound 198]
< 6.70	CN(C)c1nc(N[C@H]2CC[C@@H](CNC(=S)Nc3ccc(Oc4ccccc4)nc3)CC2)nc2ccccc12 [compound 821]
< 6.70	Cc1cccc(NC(=S)N[C@H]2CC[C@@H](Nc3nc(N(C)C)c4ccccc4n3)CC2)c1 [compound 181]
> 7.30	CCc1cccc(C(C)C)c1NC(=O)N[C@H]1CC[C@@H](Nc2nc(N(C)C)c3ccccc3n2)CC1 [compound 94, N-(cis-4-{[4-(dimethylamino)quinazolin-2-yl]amino}cyclohexyl)-N′-(2-ethyl-6-isopropylphenyl)urea]

Compound	pIC50
CN(C)c1nc(N[C@H]2CC[C@@H](NC(=O)Oc3cccc(C(F)(F)F)c3)CC2)nc2ccccc12 [compound 849]	< 6.70

Same assay, conditions: class by percent of control at 10^−7 M or by IC50; read-out: class

pIC50	Compound
< 6.70	CN(C)c1nc(N[C@H]2CC[C@@H](CNC(=O)C(O)c3ccc(Cl)cc3)CC2)nc2ccccc12 (relative stereo) [Example 1099, 2-(4-chlorophenyl)-N-[(cis-4-{[4-(dimethylamino)quinazolin-2-yl]amino}cyclohexyl)methyl]-2-hydroxyacetamide]
6.70 to 7.30	CN(C)c1nc(N[C@H]2CC[C@@H](CNC(=O)Nc3ccc(Cl)cc3Cl)CC2)nc2ccccc12 [Example 1029, N-(2,4-dichlorophenyl)-N′-[(cis-4-{[4-(dimethylamino)quinazolin-2-yl]amino}cyclohexyl)methyl]urea]
6.70 to 7.30	N-(cis-4-{[4-(dimethylamino)quinazolin-2-yl]amino}cyclohexyl)-6-(3,4,5-trimethoxyphenoxy)nicotinamide [Example 1067]
> 7.30	CN(C)c1nc(N[C@H]2CC[C@@H](C(=O)NCc3c(F)cccc3Cl)CC2)nc2ccccc12 [Example 1179, cis-N-(2-chloro-6-fluorobenzyl)-4-{[4-(dimethylamino)quinazolin-2-yl]amino}cyclohexanecarboxamide]
> 7.30	CN(C)c1nc(N[C@H]2CC[C@@H](C(=O)NCc3ccc(F)c(Br)c3)CC2)nc2ccccc12 [Example 1161, cis-N-(3-bromo-4-fluorobenzyl)-4-{[4-(dimethylamino)quinazolin-2-yl]amino}cyclohexanecarboxamide]
< 6.70	COc1ccc(NC(=O)NC[C@H]2CC[C@@H](Nc3nc(N(C)C)c4ccccc4n3)CC2)cc1OC [Example 1018, N-(3,4-dimethoxyphenyl)-N′-[(cis-4-{[4-(dimethylamino)quinazolin-2-yl]amino}cyclohexyl)methyl]urea]
> 7.30	CN(C)c1nc(N[C@H]2CC[C@@H](C(=O)NCc3cc(F)cc(C(F)(F)F)c3)CC2)nc2ccccc12 [Example 1173, cis-4-{[4-(dimethylamino)quinazolin-2-yl]amino}-N-[3-fluoro-5-(trifluoromethyl)benzyl]cyclohexanecarboxamide]
> 7.30	CN(C)c1nc(N[C@H]2CC[C@@H](C(=O)NCc3ccc(F)c(Cl)c3)CC2)nc2ccccc12 [Example 1181, cis-N-(3-chloro-4-fluorobenzyl)-4-{[4-(dimethylamino)quinazolin-2-yl]amino}cyclohexanecarboxamide]
> 7.30	COc1cc(Oc2ncccc2C(=O)N[C@H]2CC[C@@H](Nc3nc(N(C)C)c4ccccc4n3)CC2)cc(OC)c1OC [Example 1041, N-(cis-4-{[4-(dimethylamino)quinazolin-2-yl]amino}cyclohexyl)-2-(3,4,5-trimethoxyphenoxy)nicotinamide]
< 6.70	CN(C)c1nc(N[C@H]2CC[C@@H](CNC(=O)c3cc(C(F)(F)F)ccc3C(F)(F)F)C2)nc2ccccc12 [Example 1126, N-[((1R,3S)-3-{[4-(dimethylamino)quinazolin-2-yl]amino}cyclopentyl)methyl]-2,5-bis(trifluoromethyl)benzamide]
6.70 to 7.30	Cc1ccc(CNC(=O)[C@H]2CC[C@@H](Nc3nc(N(C)C)c4ccccc4n3)CC2)cc1F [Example 1143, cis-4-{[4-(dimethylamino)quinazolin-2-yl]amino}-N-(3-fluoro-4-methylbenzyl)cyclohexanecarboxamide]
